{"source": "patent US8399525B2", "about": "“Treatment of gaucher disease with specific pharmacological chaperones and monitoring treatment using surrogate markers” (Amicus Therapeutics, Inc., priority 2007, dated 2013)", "key": {"IgG": {"tested_on": "IgG", "test": "IgG measurement (ELISA) in L444P transgenic mice", "type": "in vivo", "method": "(§1) Isofagomine treatment. Mice were administered isofagomine tartrate in their drinking water, ad libitum, at a concentration of 20 mg/kg.\n(§2) Surrogate marker measurement. At the end of 4, 12, or 24 weeks, mice were sacrificed and evaluated for (i) enhancement of GCase enzyme activity in liver, spleen, lung and brain; (ii) chitotriosidase activity; (ii) body, spleen, and liver weight; and (iv) serum IgG, cholesterol, and liver enzyme levels. In addition, chaperone concentration in plasma and in the foregoing tissues will also be determined.\nd. IgG measurement: The mouse IgG ELISA quantitation kit (Bethyl Laboratories, Cat # E90-131) was used for determination of IgG concentration in plasma. 96-well plates were coated with 100 μl of the coating buffer (made by dissolving 1 capsule of coating antigen in 100 ml of double deionized water) and incubated for 1 hr at room temperature. The wells were then washed 3 times with 150 μl of wash buffer (50 mM Tris HCl (pH 8.0); 0.14 M NaCl; 0.05% Tween 20) followed by aspiration after each wash). […]\nFollowing incubation, wells were washed 5 times with wash buffer to remove the unbound sample 100 μl of secondary antibody (1:20000 in diluent buffer) was added, followed by incubation again for 1 hour at RT. […] The reaction was stopped by adding 100 μl of 1M phosphoric acid, and the color intensity was measured at 450 nm in the plate reader. […]"}, "GCase": {"target": "T1, GCase (Mus musculus, UniProt P17439, L462P)", "T1 construct": "Liver, brain, spleen, and lung tissue is freshly harvested; from tissue; host or cells: liver, spleen, lung and brain homogenates of L444P mice treated with isofagomine", "T1 sequence (P17439 20-515 L462P)": "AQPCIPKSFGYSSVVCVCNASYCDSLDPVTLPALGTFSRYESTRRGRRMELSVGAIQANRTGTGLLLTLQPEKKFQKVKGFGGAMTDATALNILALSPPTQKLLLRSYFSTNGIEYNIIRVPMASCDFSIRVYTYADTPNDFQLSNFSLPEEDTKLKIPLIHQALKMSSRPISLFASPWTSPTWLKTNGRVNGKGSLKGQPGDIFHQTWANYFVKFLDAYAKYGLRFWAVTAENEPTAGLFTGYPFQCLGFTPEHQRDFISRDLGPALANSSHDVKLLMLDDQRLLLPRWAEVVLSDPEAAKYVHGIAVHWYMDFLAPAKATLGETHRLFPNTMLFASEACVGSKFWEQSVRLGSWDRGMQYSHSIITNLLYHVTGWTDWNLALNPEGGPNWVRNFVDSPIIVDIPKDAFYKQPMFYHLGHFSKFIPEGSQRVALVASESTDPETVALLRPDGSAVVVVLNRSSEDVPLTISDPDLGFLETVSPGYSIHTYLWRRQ", "test": "GCase activity assay in tissue of L444P transgenic mice", "type": "in vivo", "method": "as §1\nas §2, with “[…],” for “At the end of 4, 12, or 24 weeks,”\na. GCase activity assays in tissue: Liver, brain, spleen, and lung tissue is freshly harvested (blood washed away with PBS), or thawed from frozen stock. Tissue is minced tissue and homogenized on ice in 200-500 μl McIlvaine (MI) buffer (0.25% sodium taurocholate, 0.1% Triton x-100 in 0.1M citrate and 0.2M phosphate buffer, pH 5.2), and centrifuged at 10,000×g. The supernatant is collected and may be frozen at this step.\nAbout 1-10 μl of supernatant from the tissue homogenates is added to a clear 96-well plate for the Micro BCA Protein Assay (Pierce, cat # 23235) to quantitate the amount of total protein according to the manufacturer's protocol. As a negative control, another 10 μl is added to a black plate, mixed with 10 μl of 2.5 mM CBE (2.7 mg Conduritol B Epoxide in 6.7 ml buffer), an inhibitor of GCase activity, and left at room temperature (RT) for 30 minutes. 50 μl of 3 mM 4-methal Umbelliferyl beta-D-glucoside (4-MU-beta-D-glucoside; made fresh, powder is dissolved in 0.2 ml of DMSO, then q.s. to proper volume with MI buffer), a GCase substrate, is then added, and the black plate is further incubated at 37° C. for 1 hr. After incubation, 10 μl of supernatant is added to a second black plate, mixed with 10 μl of MI buffer and 50 μl 6 mM of GCase substrate 4-MU-beta-D-glucoside, and incubated at 37° C. for 1 hr. The reaction is then stopped by adding 70 μl 0.2 M glycine, pH 10.8. The plate is read in a plate-reader (Victor2 1420 multilabel counter; Wallac) at F460.\nRelative […] is determined by the following equation: F460 without CBE−F460 with CBE)/(A550 sample−A550 buffer)\nF460 reading is converted into nmole 4-MU based on 4-MU standard curve and A550 is converted into mg of protein based on the protein standard curve. One unit of GCase activity is defined as nmole of 4-MU released in one hour.\nWashout study. To determine if and in what time frame the effects of drinking water dosed isofagomine on L444P mice regress after cessation of the treatment, a washout study was performed. […] male 3 month old L444P mice were dosed at about 10 mg/kg/day for 4 weeks with an equal number of mice untreated as a control. Four treated and four untreated mice were sacrificed at the end of 4 weeks, and the remaining animals were not further treated with isofagomine, i.e., they were given normal drinking water, for another two weeks prior to sacrifice and evaluation of the above-described surrogate markers."}, "[1]": {"settings": "washout study, 10 mg/kg/day, after 4 weeks of treatment"}, "[2]": {"settings": "drinking water, after two weeks of treatment (isofagomine: persisted through 4-12 weeks)"}}, "data": [{"smiles": "OC[C@H]1CNC[C@@H](O)[C@@H]1O", "note": "[isofagomine, (3R,4R,5R)-5-(hydroxymethyl)-3,4-piperidinediol]", "values": [{"measurement": "serum IgG levels", "setting": "IgG; by 2 weeks of treatment, persisted to 4 and 12 weeks, versus untreated", "value": "significant decrease"}, {"measurement": "IgG", "setting": "IgG; [1]", "value": "significantly decreased"}, {"measurement": "GCase activity in brain", "setting": "GCase; after 2 and 4 weeks of treatment, untreated about 1 U/mg", "value": "about 4.5 U/mg"}, {"measurement": "GCase activity in brain", "setting": "GCase; after 12 weeks of treatment, p<0.001, untreated about 1 U/mg", "value": "about 6 U/mg"}, {"measurement": "GCase activity in brain", "setting": "GCase; [2]", "value": "Significant increase"}, {"measurement": "GCase activity in liver", "setting": "GCase; [2]", "value": "Significant increase"}, {"measurement": "GCase activity in lung", "setting": "GCase; [2]", "value": "Significant increase"}, {"measurement": "GCase activity in spleen", "setting": "GCase; [2]", "value": "Significant increase"}, {"measurement": "GCase activity in brain", "setting": "GCase; [1]", "value": "significantly elevated"}, {"measurement": "GCase activity in liver", "setting": "GCase; [1]", "value": "significantly elevated"}, {"measurement": "GCase activity in lung", "setting": "GCase; [1]", "value": "significantly elevated"}, {"measurement": "GCase activity in spleen", "setting": "GCase; [1]", "value": "significantly elevated"}]}]}
